In US20170265474A1, “BICYCLIC COMPOUNDS AS PEST CONTROL AGENTS” (BAYER CROPSCIENCE AKTIENGESELLSCHAFT, priority 2014, published 2017):
Where two headings read alike, the source gives them in different places.

Experiments:
[1] = log P by HPLC on reversed-phase (C18) columns, OECD Guideline 117; assay type: physicochemical; conditions: reversed-phase (C18) HPLC column
Procedure: The log P values were determined in accordance with OECD Guideline 117 (EC Directive 92/69/EEC) by HPLC (high-performance liquid chromatography) using reversed-phase (RP) columns (C18), by the following methods: [a] The LC-MS determination in the acidic range is carried out at pH 2.7 with 0.1% aqueous formic acid and acetonitrile (contains 0.1% formic acid) as eluents; linear gradient from 10% acetonitrile to 95% acetonitrile. [b] LC-MS determination in the neutral range is effected at pH 7.8 with 0.001 molar aqueous ammonium hydrogencarbonate solution and acetonitrile as eluents; linear gradient from 10% acetonitrile to 95% acetonitrile. Calibration is carried out using unbranched alkan-2-ones (having 3 to 16 carbon atoms) with known log P values (log P values determined on the basis of the retention times by linear interpolation between two successive alkanones).

Aphis gossypii = Aphis gossypii spray test (cotton plants); assay type: in vivo, cotton aphid (Aphis gossypii); conditions: application rate 4 ppm, after 6 days
Procedure: Aphis gossypii—Spray Test • Solvent: 7 parts by weight of dimethylformamide • Emulsifier: alkylaryl polyglycol ether To produce a suitable preparation of active compound, 1 part by weight of active compound is dissolved using the specified parts by weight of solvent and made up with water containing an emulsifier concentration of 1000 ppm until the desired concentration is attained. To produce further test concentrations, the formulation is diluted with emulsifier-containing water. If the addition of ammonium salts or/and penetrants is required, these are each added in a concentration of 1000 ppm to the formulation solution. Cotton plants (Gossypium hirsutum) which are heavily infested by the cotton aphid (Aphis gossypii) are sprayed with an active compound formulation of the desired concentration. After 6 days, the kill in % is determined. 100% means that all the aphids have been killed; 0% means that no aphids have been killed.

Tetranychus urticae = Tetranychus urticae spray test, OP-resistant (bean leaf discs); assay type: in vivo, greenhouse red spider mite (Tetranychus urticae); conditions: application rate 500 g/ha, after 6 days, 100% = all spider mites killed
Procedure: Tetranychus urticae—Spray Test, OP-Resistant • Solvent: 78.0 parts by weight of acetone • 1.5 parts by weight of dimethylformamide • Emulsifier: alkylaryl polyglycol ether
To produce a suitable preparation of active compound, 1 part by weight of active compound is dissolved using the specified parts by weight of solvent and made up with water containing an emulsifier concentration of 1000 ppm until the desired concentration is attained. To produce further test concentrations, the formulation is diluted with emulsifier-containing water.
Discs of bean leaves (Phaseolus vulgaris) infested with all stages of the greenhouse red spider mite (Tetranychus urticae) are sprayed with an active compound formulation of the desired concentration.
After 6 days, the efficacy in % is determined. 100% means that all the spider mites have been killed; 0% means that no spider mites have been killed.

Myzus persicae [2] = experiment: Myzus persicae spray test (bell pepper plants); assay type: in vivo, green peach aphid (Myzus persicae); conditions: after 6 days
Procedure: Myzus persicae—Spray Test • Solvent: 7 parts by weight of dimethylformamide • Emulsifier: alkylaryl polyglycol ether To produce a suitable preparation of active compound, 1 part by weight of active compound is dissolved using the specified parts by weight of solvent and made up with water containing an emulsifier concentration of 1000 ppm until the desired concentration is attained. To produce further test concentrations, the formulation is diluted with emulsifier-containing water. If the addition of ammonium salts or/and penetrants is required, these are each added in a concentration of 1000 ppm to the formulation solution. Bell pepper plants (Capsicum annuum) severely infested with the green peach aphid (Myzus persicae) are treated by spraying with the active compound formulation in the desired concentration. After 6 days, the kill in % is determined. 100% means that all of the aphids have been killed; 0% means that none of the aphids have been killed.

Myzus persicae [3] = experiment: Myzus persicae spray test (Chinese cabbage leaf discs); assay type: in vivo, green peach aphid (Myzus persicae); conditions: foliar, 144 h, application rate 500 g/ha, after 6 days, 100% = all aphids killed, read-out: efficacy
Procedure: Myzus persicae—Spray Test • Solvent: 78 parts by weight of acetone • 1.5 parts by weight of dimethylformamide • Emulsifier: alkylaryl polyglycol ether To produce a suitable preparation of active compound, 1 part by weight of active compound is dissolved using the specified parts by weight of solvent and made up with water containing an emulsifier concentration of 1000 ppm until the desired concentration is attained. To produce further test concentrations, the formulation is diluted with emulsifier-containing water. Discs of Chinese cabbage leaves (Brassica pekinensis) infested by all stages of the green peach aphid (Myzus persicae) are sprayed with an active compound formulation of the desired concentration. After 6 days, the efficacy in % is determined. 100% means that all the aphids have been killed; 0% means that no aphids have been killed.

[4] = acidic range, pH 2.7, 0.1% aqueous formic acid / acetonitrile, read-out: logP[a]
[5] = neutral range, pH 7.8, 0.001 molar aqueous ammonium hydrogencarbonate / acetonitrile, read-out: logP[b]

Row | Structure (SMILES) | chromatographic logP [1, 4] | chromatographic logP [1, 5] | pest or weed control at 500 g/ha (Myzus persicae [3]) | further results
1 | Cc1ccc(Nc2ccc3nc(-c4cccnc4)sc3n2)cc1[S+]([O-])CC(F)(F)F (stereo not shown) [Example 42] | 2.75 | 2.77 | – | –
2 | c1cnc(-c2ccc3nc(-c4cccnc4)sc3n2)nc1 [Example 7, 2-(3-Pyridyl)-5-pyrimidin-2-ylthiazolo[5,4-b]pyridine] | 1.43 | 1.5 | – | efficacy (kill) (Aphis gossypii): 80%
3 | CS(=O)(=O)CCC(=O)Nc1ccc2nc(-c3cccnc3)sc2n1 [Example 38] | 1.18 | – | – | –
4 | CNC(=O)c1ccc2nc(-c3cccnc3)sc2n1 [Example 32] | 1.35 | – | – | –
5 | FC(F)(F)c1ccn(-c2ccc3nc(-c4cccnc4)sc3n2)n1 [Example 39] | 3.79 | 3.83 | – | –
6 | Cc1ccc(Nc2ccc3nc(-c4cccnc4)sc3n2)cc1SCC(F)(F)F [Example 9, N-[4-Methyl-3-(2,2,2-trifluoroethylsulfanyl)phenyl]-2-(3-pyridyl)thiazolo[5,4-b]pyridine-5-amine] | 3.99 | 4.06 | – | efficacy (Tetranychus urticae): 90%
7 | c1cncc(-c2nc3ccc(N4CCCC4)nc3s2)c1 [Example 6, 2-(3-Pyridyl)-5-pyrrolidin-1-ylthiazolo[5,4-b]pyridine] | 2.53 | 2.97 | – | efficacy (kill) (Myzus persicae [2]; application rate 100 ppm): 95%
8 | c1cncc(-c2nc3ccc(N4CCOCC4)nc3s2)c1 [Example 11, 4-[2-(3-Pyridyl)thiazolo[5,4-b]pyridin-5-yl]morpholine] | 2.1 | 1.95 | 90% | –
9 | CN(C(=O)c1cccc(S(=O)(=O)C(F)(F)F)c1)c1ccc2nc(-c3cccnc3)sc2n1 [Example 31] | 1.54 | – | 90% | –
10 | CSCCNC(=O)c1ccc2nc(-c3cccnc3)sc2n1 [Example 35] | 2.03 | – | 90% | –
11 | CN(C(=O)CCS(C)(=O)=O)c1ccc2nc(-c3cccnc3)sc2n1 [Example 30, N-Methyl-3-(methylsulfonyl)-N-[2-(pyridin-3-yl)[1,3]thiazolo[5,4-b]pyridin-5-yl]propanamide] | 1.25 | – | 90% | –
12 | O=C(Nc1ccc2nc(-c3cccnc3)sc2n1)c1cccc([S+]([O-])C(F)(F)F)c1 (stereo not shown) [Example 37] | 2.61 | – | – | –
13 | Cc1cc(F)c(-c2ccc3nc(-c4cccnc4)sc3n2)cc1[S+]([O-])CC(F)(F)F (stereo not shown) [Example 3, 5-[2-Fluoro-4-methyl-5-(2,2,2-trifluoroethylsulfinyl)phenyl]-2-(3-pyridyl)thiazolo[5,4-b]pyridine] | 3.02 | 3.09 | – | efficacy (kill) (Myzus persicae [2]; application rate 4 ppm): 97%
14 | FC(F)(F)c1ccc2nc(-c3cccnc3)sc2n1 [Example 10, 2-(3-Pyridyl)-5-(trifluoromethyl)thiazolo[5,4-b]pyridine] | 2.65 | 2.69 | – | efficacy (Tetranychus urticae): 90%
15 | CCN(C)C(=O)c1ccc2nc(-c3cccnc3)sc2n1 [Example 33] | 1.53 | – | – | –
16 | Cc1ccc(-c2ccc3nc(-c4cccnc4)sc3n2)cc1SCC(F)(F)F [Example 2, 5-[4-Methyl-3-(2,2,2-trifluoroethylsulfanyl)phenyl]-2-(3-pyridyl)thiazolo[5,4-b]pyridine] | 4.67 | 4.64 | 90% | efficacy (kill) (Myzus persicae [2]; application rate 4 ppm): 100%
17 | CSCCC(=O)N(C)c1ccc2nc(-c3cccnc3)sc2n1 [Example 22] | 1.98 | – | 90% | –
18 | Clc1ccc2nc(-c3cccnc3)sc2n1 [Example 40] | 2.26 | 2.33 | – | –
19 | CN(C(=O)c1cccc([S+]([O-])C(F)(F)F)c1)c1ccc2nc(-c3cccnc3)sc2n1 (stereo not shown) [Example 29] | 2.23 | – | 100% | –
20 | Cc1cc(F)c(-c2ccc3nc(-c4cccnc4)sc3n2)cc1SCC(F)(F)F [Example 1, 5-[2-Fluoro-4-methyl-5-(2,2,2-trifluoroethylsulfanyl)phenyl]-2-(3-pyridyl)thiazol [5,4-b]pyridine] | 4.81 | 4.75 | 100% | efficacy (kill) (Myzus persicae [2]; application rate 4 ppm): 100%
21 | FC(F)(F)c1cnn(-c2ccc3nc(-c4cccnc4)sc3n2)c1 [Example 13, 2-(3-Pyridyl)-5-[4-(trifluoromethyl)pyrazol-1-yl]thiazolo[5,4-b]pyridine] | 3.82 | 3.72 | – | –
22 | O=C(Nc1cccc([S+]([O-])C(F)(F)F)c1)c1ccc2nc(-c3cccnc3)sc2n1 (stereo not shown) [Example 36] | 3.09 | – | – | –
23 | c1ccc(-c2ccc3nc(-c4cccnc4)sc3n2)nc1 [Example 8, 5-(2-Pyridyl)-2-(3-pyridyl)thiazolo[5,4-b]pyridine] | 2.12 | 2.68 | – | efficacy (kill) (Myzus persicae [2]; application rate 4 ppm): 80%
24 | CNc1ccc2nc(-c3cccnc3)sc2n1 [Example 15] | 1.34 | – | – | –
25 | O=C(Nc1cccc(S(=O)(=O)C(F)(F)F)c1)c1ccc2nc(-c3cccnc3)sc2n1 [Example 34] | 2.1 | – | – | –
26 | Cc1ccc(-c2ccc3nc(-c4cccnc4)sc3n2)cc1[S+]([O-])CC(F)(F)F (stereo not shown) [Example 4, 5-[4-Methyl-3-(2,2,2-trifluoroethylsulfinyl)phenyl]-2-(3-pyridyl)thiazolo[5,4-b]pyridine] | 2.99 | 2.98 | 90% | efficacy (kill) (Myzus persicae [2]; application rate 4 ppm): 95%
27 | Cc1ccc(N(C)c2ccc3nc(-c4cccnc4)sc3n2)cc1SCC(F)(F)F [Example 12, N-methyl-N-[4-methyl-3-(2,2,2-trifluoroethylsulfanyl)phenyl]-2-(3-pyridyl)thiazolo[5,4-b]pyridine-5-amine] | 4.81 | 4.78 | 90% | –
